The record followed here is BindingDB's records for patent US20260049068 (Bristol Myers Squibb, 2026).

The target in assay [1] is T1, Diacylglycerol kinase alpha [9-727] (Homo sapiens, UniProt P23743).
T1 construct: 9-727
Nature of the assay: In Vitro DGK Inhibition Assay.
Experimental: (§1) The DGKα (Full Length and Near Full Length) ADP Glo assays were performed using an extruded liposome prep at either 5% DAG or 10% DAG. The Enzymatic reactions were carried out in 50 mM MOPS pH 7.5, 100 mM NaCl, 10 mM MgCl2, 1 μM CaCl2, and 1 mM DTT (assay buffer). The lipid substrate concentrations were 1.9 mM PS, either 0.25 mM DAG (5% liposome prep) or 0.5 mM DAG (10% liposome prep), and 2.7 mM PC for the extruded liposome reactions. […] A 5 mL enzyme/substrate (substrate being the 5× or 10× liposome preparation) solution at 2× final reaction concentrations was prepared by combining 5 ml of the extruded liposome preparation with 10 nM (2× final) DGKα(Near Full Length) or DGKα(Full Length) prepared as described below) and incubated at room temperature for 10 minutes. Next, 1 μL of the 2× enzyme/substrate solution was added to wells containing the test compound and reactions were initiated with the addition of 1 μL 300 uM ATP. Substrate only was added to DMSO only wells for background measurements. The reactions were allowed to proceed for 1 hr, after which 2 μL Glo Reagent (Promega V9101) was added and incubated for 40 minutes. Next, 4 μL Kinase Detection Reagent was added and incubated for 30 minutes. Luminescence was recorded using an EnVision microplate reader. […] The compounds were evaluated at 11 concentrations to determine IC50.

Assay [2] deals with Diacylglycerol kinase alpha (Homo sapiens, UniProt P23743). Nature of the assay: In Vitro DGK Inhibition Assay.
Sequence of Diacylglycerol kinase alpha (P23743 whole entry): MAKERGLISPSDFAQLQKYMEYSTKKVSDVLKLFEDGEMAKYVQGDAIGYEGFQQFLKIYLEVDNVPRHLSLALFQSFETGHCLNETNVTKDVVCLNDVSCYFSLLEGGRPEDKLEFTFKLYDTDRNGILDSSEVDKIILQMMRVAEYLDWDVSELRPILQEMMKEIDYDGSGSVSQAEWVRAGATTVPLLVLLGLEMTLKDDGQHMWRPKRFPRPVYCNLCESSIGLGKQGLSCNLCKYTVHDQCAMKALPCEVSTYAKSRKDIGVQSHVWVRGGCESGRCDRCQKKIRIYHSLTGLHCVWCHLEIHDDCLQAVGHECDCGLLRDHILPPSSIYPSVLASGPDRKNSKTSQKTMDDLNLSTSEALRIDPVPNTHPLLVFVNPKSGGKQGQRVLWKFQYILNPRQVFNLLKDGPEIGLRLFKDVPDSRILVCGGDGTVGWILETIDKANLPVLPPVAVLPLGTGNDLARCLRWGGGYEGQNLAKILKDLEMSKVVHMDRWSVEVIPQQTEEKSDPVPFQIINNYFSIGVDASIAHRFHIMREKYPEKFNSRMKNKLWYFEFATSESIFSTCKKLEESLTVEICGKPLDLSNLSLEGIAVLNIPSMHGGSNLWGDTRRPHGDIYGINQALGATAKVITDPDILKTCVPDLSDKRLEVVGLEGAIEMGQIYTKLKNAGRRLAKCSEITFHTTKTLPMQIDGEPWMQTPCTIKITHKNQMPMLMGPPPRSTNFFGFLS
Experimental: as §1

T1 sequence (P23743 whole entry): as above

As usually defined, the IC50 is the concentration that gives 50% inhibition. Consider `CC1CCC(N(C)Cc2nnnn2-c2cccc([N+](=O)[O-])c2)CC1` (centres undefined) [US20260049068, Example 2], for which the IC50 in assay [1] came out at 1.2 µM; in assay [2] it was 2.7 µM.

Consider `C=CCN(Cc1nnnn1-c1ccc(Cl)c(C#N)n1)C1CCCCC1` [US20260049068, Example 17], for which the IC50 is 1.6 µM in assay [1] and 1.2 µM in assay [2].

In assay [1], `CN(Cc1nnnn1-c1cc(C#N)cc([N+](=O)[O-])c1)C1CCCCC1` [US20260049068, Example 27] showed a half-maximal inhibitory concentration (IC50) of 0.48 µM.

As for `CN(Cc1nnnn1-c1ccc(Cl)c([N+](=O)[O-])c1)C1CCCCC1` [US20260049068, Example 28], the IC50 in assay [1] came to 0.12 µM; in assay [2], 0.06 µM.

`CN(Cc1nnnn1-c1cccc([N+](=O)[O-])c1)C1CCOCC1` [US20260049068, Example 38] showed an IC50 in assay [2] of 15 µM.

`CN(Cc1nnnn1-c1cccc([N+](=O)[O-])c1)C1CCN(C(=O)OC(C)(C)C)C1` (centres undefined) [US20260049068, Example 39] came in with an IC50 in assay [2] of 35 µM.

For the compound `CN(Cc1nnnn1-c1cccc([N+](=O)[O-])c1)C1CCOC1` (centres undefined) [US20260049068, Example 40], in assay [2], the IC50 was 55 µM.

`CC(C)CN(C)Cc1nnnn1-c1cccc([N+](=O)[O-])c1` [US20260049068, Example 42] had a half-maximal inhibitory concentration (IC50) in assay [2] of 32 µM.

`CN(Cc1nnnn1-c1cccc([N+](=O)[O-])c1)C1CC1` [US20260049068, Example 44] showed a half-inhibitory concentration (IC50) in assay [2] of 180 µM.

Regarding `N#Cc1nc(-n2nnnc2CN(CC(O)c2ccccc2)C2CCCCC2)ccc1Cl` (centres undefined) [US20260049068, Example 57], the IC50 in assay [2] was 120 µM.

As to `N#Cc1nc(-n2nnnc2CN(Cc2ccccc2)[C@@H]2CCCC[C@H]2O)ccc1Cl` [US20260049068, Example 58], the IC50 in assay [2] was 60 µM.
